Reference: patent publication US9302999B2, “Substituted triazoles as herbicides” (E. I. DU PONT DE NEMOURS AND COMPANY, priority 2012, dated 2016)

How the values were obtained:
Type in all cases: in vivo
[1] = tested on: barnyardgrass (Echinochloa crus-galli); experiment: Test A pre-/postemergence: barnyardgrass
How it was run: (§1)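 Rating scale 0–100 (100 = complete control), visual, ~10 days after application in the greenhouse. Applications: preemergence directed soil spray; postemergence at 1–2 leaves.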

[2] = tested on: morningglory (Ipomoea spp.); experiment: Test A pre-/postemergence: morningglory; details: for Morningglory plant response rating: visual rating on 0 to 100 scale (0 no effect, 100 complete control), approximately ten days
How it was run: as §1

[3] = tested on: pigweed (Amaranthus retroflexus); experiment: Test A pre-/postemergence: pigweed; details: for Pigweed plant response rating: visual rating on 0 to 100 scale (0 no effect, 100 complete control), approximately ten days
How it was run: as §1

[4] = tested on: wheat (Triticum aestivum); experiment: Test A pre-/postemergence: wheat; details: for Wheat plant response rating: visual rating on 0 to 100 scale (0 no effect, 100 complete control), approximately ten days
How it was run: as §1

corn (Zea mays) = experiment: Test A pre-/postemergence: corn
How it was run: as §1

[5] = tested on: blackgrass (Alopecurus myosuroides); experiment: Test C pre-/postemergence: blackgrass
How it was run: (§2)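 Preemergence on seeds in loam/sand, postemergence on 2–18 cm (1–4-leaf) plants in peat-based medium; compounds in non-phytotoxic solvent with surfactant. After 13–15 days in greenhouse, visual rating versus controls, 0 (no effect) to 100 (complete control).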

[6] = tested on: ryegrass, Italian (Italian ryegrass, Lolium multiflorum); experiment: Test C pre-/postemergence: ryegrass, Italian
How it was run: as §2

[7] = tested on: winter wheat (Triticum aestivum); experiment: Test C pre-/postemergence: winter wheat
How it was run: as §2

[8] = tested on: foxtail, giant (giant foxtail, Setaria faberii); experiment: Test C pre-/postemergence: foxtail, giant
How it was run: as §2

[9] = tested on: morningglory (Ipomoea coccinea); experiment: Test C pre-/postemergence: morningglory
How it was run: as §2

[10] = tested on: nutsedge, yellow (yellow nutsedge, Cyperus esculentus); experiment: Test C pre-/postemergence: nutsedge, yellow
How it was run: as §2

[11] = Postemergence, 125 g ai/ha, 0 to 100 scale, 0 is no effect, 100 is complete control
[12] = Postemergence, 500 g ai/ha, visual rating on 0 to 100 scale (0 no effect, 100 complete control), approximately ten days
[13] = Preemergence, 125 g ai/ha, 0 to 100 scale where 0 is no effect and 100 is complete control
[14] = Preemergence, 500 g ai/ha, 0 to 100 scale (0 no effect, 100 complete control)
[15] = Postemergence, 31 g ai/ha, scale 0 to 100 (0 no effect, 100 complete control)
[16] = Postemergence, 62 g ai/ha, scale 0 to 100 (0 no effect, 100 complete control)
[17] = Postemergence, 125 g ai/ha, scale 0 to 100, 0 no effect, 100 complete control
[18] = Postemergence, 250 g ai/ha, scale 0 to 100
[19] = Preemergence, 31 g ai/ha, scale of 0 to 100, 0 is no effect, 100 is complete control
[20] = Preemergence, 62 g ai/ha, scale of 0 to 100, 0 is no effect, 100 is complete control
[21] = Preemergence, 125 g ai/ha, scale 0 to 100, 0 no effect, 100 complete control
[22] = Preemergence, 250 g ai/ha, scale 0 to 100, 0 no effect, 100 complete control

Cc1nn(-c2ccnc(C(F)(F)F)c2)nc1Cc1ccnc(C(F)(F)F)c1 [Compound 137]
Barnyardgrass plant response rating [1, 11]: 70 | Barnyardgrass plant response rating [1, 12]: 90 | Plant response rating, Barnyardgrass [1, 13]: 50 | Plant response rating, Barnyardgrass [1, 14]: 70 | Plant response rating, Morningglory [2, 11]: 80 | Morningglory plant response rating ([2]; Postemergence, 500 g ai/ha): 100 | Plant response rating, Morningglory [2, 13]: 40 | Plant response rating, Morningglory [2, 14]: 60 | Plant response rating, Pigweed [3, 11]: 100 | Pigweed plant response rating ([3]; Postemergence, 500 g ai/ha): 100 | Plant response rating, Pigweed [3, 13]: 100 | Plant response rating, Pigweed [3, 14]: 100 | Plant response rating, Wheat [4, 11]: 20 | Wheat plant response rating ([4]; Postemergence, 500 g ai/ha): 30 | Plant response rating, Wheat [4, 13]: 0 | Plant response rating, Wheat [4, 14]: 0 | Corn plant response rating (corn (Zea mays); [11]): 20 | Corn plant response rating (corn (Zea mays); [12]): 30 | Plant response rating, Corn (corn (Zea mays); [13]): 0 | Plant response rating, Corn (corn (Zea mays); [14]): 0 | Plant response rating, Blackgrass [5, 15]: 10 | Plant response rating, Blackgrass [5, 16]: 30 | Plant response rating, Blackgrass [5, 17]: 35 | Plant response rating, Blackgrass [5, 18]: 60 | Plant response rating, Ryegrass, Italian [6, 15]: 35 | Plant response rating, Ryegrass, Italian [6, 16]: 55 | Plant response rating, Ryegrass, Italian [6, 17]: 65 | Plant response rating, Ryegrass, Italian [6, 18]: 90 | Plant response rating, Wheat [7, 15]: 10 | Plant response rating, Wheat [7, 16]: 15 | Plant response rating, Wheat [7, 17]: 30 | Plant response rating, Wheat [7, 18]: 35 | Plant response rating, Foxtail, Giant [8, 15]: 10 | Plant response rating, Foxtail, Giant [8, 16]: 40 | Plant response rating, Foxtail, Giant [8, 18]: 50 | Plant response rating, Morningglory [9, 16]: 60 | Plant response rating, Morningglory [9, 17]: 80 | Plant response rating, Morningglory [9, 18]: 90 | Plant response rating, Nutsedge, Yellow [10, 15]: 5 | Plant response rating, Nutsedge, Yellow [10, 16]: 10 | Plant response rating, Nutsedge, Yellow [10, 17]: 10 | Plant response rating, Nutsedge, Yellow [10, 18]: 15

Cc1nn(-c2ccc(F)c(F)c2)nc1Oc1ccnc(C(F)(F)F)c1 [Compound 145]
Barnyardgrass plant response rating [1, 11]: 80 | Barnyardgrass plant response rating [1, 12]: 90 | Plant response rating, Barnyardgrass [1, 13]: 100 | Plant response rating, Barnyardgrass [1, 14]: 100 | Plant response rating, Morningglory [2, 11]: 100 | Morningglory plant response rating ([2]; Postemergence, 500 g ai/ha): 100 | Plant response rating, Morningglory [2, 13]: 10 | Plant response rating, Morningglory [2, 14]: 60 | Plant response rating, Pigweed [3, 11]: 100 | Pigweed plant response rating ([3]; Postemergence, 500 g ai/ha): 100 | Plant response rating, Pigweed [3, 13]: 100 | Plant response rating, Pigweed [3, 14]: 100 | Plant response rating, Wheat [4, 11]: 20 | Wheat plant response rating ([4]; Postemergence, 500 g ai/ha): 50 | Plant response rating, Wheat [4, 13]: 20 | Plant response rating, Wheat [4, 14]: 60 | Corn plant response rating (corn (Zea mays); [11]): 40 | Corn plant response rating (corn (Zea mays); [12]): 90 | Plant response rating, Corn (corn (Zea mays); [13]): 10 | Plant response rating, Corn (corn (Zea mays); [14]): 40 | Plant response rating, Blackgrass [5, 15]: 10 | Plant response rating, Blackgrass [5, 16]: 60 | Plant response rating, Blackgrass [5, 17]: 70 | Plant response rating, Blackgrass [5, 18]: 70 | Plant response rating, Blackgrass [5, 19]: 85 | Plant response rating, Blackgrass [5, 20]: 90 | Plant response rating, Blackgrass [5, 21]: 90 | Plant response rating, Blackgrass [5, 22]: 90 | Plant response rating, Ryegrass, Italian [6, 15]: 20 | Plant response rating, Ryegrass, Italian [6, 16]: 30 | Plant response rating, Ryegrass, Italian [6, 17]: 40 | Plant response rating, Ryegrass, Italian [6, 18]: 50 | Plant response rating, Ryegrass, Italian [6, 19]: 5 | Plant response rating, Ryegrass, Italian [6, 20]: 35 | Plant response rating, Ryegrass, Italian [6, 21]: 90 | Plant response rating, Ryegrass, Italian [6, 22]: 90 | Plant response rating, Wheat [7, 15]: 5 | Plant response rating, Wheat [7, 16]: 15 | Plant response rating, Wheat [7, 17]: 30 | Plant response rating, Wheat [7, 18]: 40 | Plant response rating, Wheat [7, 20]: 5 | Plant response rating, Wheat [7, 21]: 5 | Plant response rating, Wheat [7, 22]: 50 | Plant response rating, Foxtail, Giant [8, 15]: 15 | Plant response rating, Foxtail, Giant [8, 16]: 20 | Plant response rating, Foxtail, Giant [8, 17]: 50 | Plant response rating, Foxtail, Giant [8, 18]: 85 | Plant response rating, Foxtail, Giant [8, 19]: 95 | Plant response rating, Foxtail, Giant [8, 20]: 100 | Plant response rating, Foxtail, Giant [8, 21]: 100 | Plant response rating, Foxtail, Giant [8, 22]: 100 | Plant response rating, Morningglory [9, 15]: 90 | Plant response rating, Morningglory [9, 16]: 90 | Plant response rating, Morningglory [9, 17]: 95 | Plant response rating, Morningglory [9, 18]: 98 | Plant response rating, Morningglory [9, 19]: 15 | Plant response rating, Morningglory [9, 20]: 20 | Plant response rating, Morningglory [9, 21]: 70 | Plant response rating, Morningglory [9, 22]: 85 | Plant response rating, Nutsedge, Yellow [10, 15]: 5 | Plant response rating, Nutsedge, Yellow [10, 16]: 10 | Plant response rating, Nutsedge, Yellow [10, 17]: 15 | Plant response rating, Nutsedge, Yellow [10, 18]: 15 | Plant response rating, Nutsedge, Yellow [10, 21]: 5 | Plant response rating, Nutsedge, Yellow [10, 22]: 10

CCCc1nn(-c2ccc(F)cc2)nc1Cc1ccnc(C(F)(F)F)c1 [Compound 153]
Plant response rating, Barnyardgrass [1, 11]: 90 | Barnyardgrass plant response rating [1, 12]: 90 | Plant response rating, Barnyardgrass [1, 13]: 100 | Plant response rating, Barnyardgrass [1, 14]: 100 | Plant response rating, Morningglory [2, 11]: 90 | Morningglory plant response rating ([2]; Postemergence, 500 g ai/ha): 100 | Plant response rating, Morningglory [2, 13]: 80 | Plant response rating, Morningglory [2, 14]: 100 | Plant response rating, Pigweed [3, 11]: 100 | Pigweed plant response rating ([3]; Postemergence, 500 g ai/ha): 100 | Plant response rating, Pigweed [3, 13]: 100 | Plant response rating, Pigweed [3, 14]: 100 | Plant response rating, Wheat [4, 11]: 60 | Wheat plant response rating ([4]; Postemergence, 500 g ai/ha): 70 | Plant response rating, Wheat [4, 13]: 50 | Plant response rating, Wheat [4, 14]: 70 | Plant response rating, Corn (corn (Zea mays); [11]): 60 | Corn plant response rating (corn (Zea mays); [12]): 80 | Plant response rating, Corn (corn (Zea mays); [13]): 70 | Plant response rating, Corn (corn (Zea mays); [14]): 80 | Plant response rating, Blackgrass [5, 15]: 55 | Plant response rating, Blackgrass [5, 16]: 60 | Plant response rating, Blackgrass [5, 17]: 70 | Plant response rating, Blackgrass [5, 18]: 90 | Plant response rating, Blackgrass [5, 19]: 90 | Plant response rating, Blackgrass [5, 20]: 90 | Plant response rating, Blackgrass [5, 21]: 90 | Plant response rating, Blackgrass [5, 22]: 90 | Plant response rating, Ryegrass, Italian [6, 15]: 30 | Plant response rating, Ryegrass, Italian [6, 16]: 35 | Plant response rating, Ryegrass, Italian [6, 17]: 60 | Plant response rating, Ryegrass, Italian [6, 18]: 65 | Plant response rating, Ryegrass, Italian [6, 19]: 60 | Plant response rating, Ryegrass, Italian [6, 20]: 90 | Plant response rating, Ryegrass, Italian [6, 21]: 90 | Plant response rating, Ryegrass, Italian [6, 22]: 90 | Plant response rating, Wheat [7, 15]: 10 | Plant response rating, Wheat [7, 16]: 30 | Plant response rating, Wheat [7, 17]: 30 | Plant response rating, Wheat [7, 18]: 30 | Plant response rating, Wheat [7, 20]: 35 | Plant response rating, Wheat [7, 21]: 60 | Plant response rating, Wheat [7, 22]: 60 | Plant response rating, Foxtail, Giant [8, 15]: 45 | Plant response rating, Foxtail, Giant [8, 16]: 80 | Plant response rating, Foxtail, Giant [8, 17]: 90 | Plant response rating, Foxtail, Giant [8, 18]: 95 | Plant response rating, Foxtail, Giant [8, 19]: 100 | Plant response rating, Foxtail, Giant [8, 20]: 100 | Plant response rating, Foxtail, Giant [8, 21]: 100 | Plant response rating, Foxtail, Giant [8, 22]: 100 | Plant response rating, Morningglory [9, 15]: 40 | Plant response rating, Morningglory [9, 16]: 80 | Plant response rating, Morningglory [9, 17]: 95 | Plant response rating, Morningglory [9, 18]: 95 | Plant response rating, Morningglory [9, 19]: 20 | Plant response rating, Morningglory [9, 20]: 30 | Plant response rating, Morningglory [9, 21]: 50 | Plant response rating, Morningglory [9, 22]: 50 | Plant response rating, Nutsedge, Yellow [10, 15]: 10 | Plant response rating, Nutsedge, Yellow [10, 16]: 10 | Plant response rating, Nutsedge, Yellow [10, 17]: 15 | Plant response rating, Nutsedge, Yellow [10, 18]: 15 | Plant response rating, Nutsedge, Yellow [10, 19]: 0 | Plant response rating, Nutsedge, Yellow [10, 20]: 0 | Plant response rating, Nutsedge, Yellow [10, 21]: 5
